In ChEMBL document CHEMBL1914322, “Novel terpenoids of the fungus Aspergillus insuetus isolated from the Mediterranean sponge Psammocinia sp. collected along the coast of Israel” (2011):
Converted amounts (≈) assume the structure as drawn. The source made the active and inactive calls. No cut-off for these calls is given here.

What was measured:
Neurospora crassa = experiment: Antifungal activity against Neurospora crassa 74-OR23-1A after 12 hrs; type: functional
MOLT-4 = experiment: Cytotoxicity against human MOLT4 cells at […]; type: functional

SMILES | MIC (Neurospora crassa) [µM] | inhibition (MOLT-4)
CC(O)C(O)/C=C/C=C/C(=O)O[C@@H]1C=C2COC(=O)[C@]2(O)[C@@]2(C)CCCC(C)(C)[C@H]12 (stereo not given in full) | 162 (≈ 68.1 µg/mL) | –
CC1(C)OC(=O)C=C[C@]2(C)[C@@H]3C[C@@]4(C)C(=O)[C@@]5(C)C[C@@H]6C(=O)OC[C@@]64O[C@@]3(CC[C@@H]12)C5 [INSUETOLIDE A] | 140 (≈ 60 µg/mL) | inactive
CC1(C)CCC[C@@]2(C)[C@H]1[C@H](O)C=C1COC(=O)[C@@]12O [STROBILACTONE A] | 242 (≈ 64.5 µg/mL) | inactive
